Results as given in patent publication US8603493B2, “Carbosilane dendrimers, preparation method thereof and use of same” (Dendrico, S.L., priority 2005, dated 2013).
Entries after “also recorded” stand apart in the source; their conditions may differ.

What was measured:
[1] = test system: PBMC; assay: Flow cytometry test (size and complexity; live cells vs apoptosis-necrosis); type: cell-based, human; settings: 72 hours, same concentrations as Trypan Blue test
Method: The evaluation time on this occasion was 72 hours. The toxicity was evaluated on PBMC, produced in the manner described in Example 38. […] The ODN used was PPT, in the following way: • [ODN PPT] in the complex with the CBS: 2.57 (0.88 μM) • [ODN PPT] in the complex with SF: 0.34 μM • [ODN PPT] in the complex with G4: 1 μM […] The cells were either incubated with said complexes, a mixture of equal volume which contained ODN without CBS, a mixture which contained dendrimer alone, or with a mixture which contained only RPMI+complete medium which was used as negative control. The cells and/or the supernatant were then collected to be analysed by flow cytometry, confocal microscopy or cell DNA extraction. The percentages of cells with size and complexity corresponding to cells in apoptosis-necrosis were compared with the live cells. For this, the size (FW) and the complexity (SD) was evaluated by flow cytometry. To do this, a region was drawn around the cells with FW and SD corresponding to cells in apoptosis-necrosis and another around the cells with FW and SD corresponding to live cells. The percentages of cells present in each slide were compared. The graphics produced are shown in FIG. 15, wherein the X-axis represents the size (FW) and the Y-axis the complexity (SD). […] The cloud of dark cells corresponds to cells in apoptosis necrosis. The live cells are represented in grey.

[2] = test system: ODN; assay: Complex formation between CBS and ODN (agarose gel electrophoresis); type: binding; settings: 3% agarose gel, RPMI, excess positive charge (+/−) 2/1 and higher
From the text: The oligonucleotidic sequences used were antisense sequences (complementary) directed against HIV RNA. The length varied from 15 to 28 bases, being of phosphorothioate nature. The specific ODN used and their sequences are shown below in Table 1.
Several of the ODN were used fluorescent at the 5′ end. This is indicated by adding the letter F to its notation. Thus, “GF” makes reference to the fluorescent anti-gag ODN at end 5′, whilst “RF” makes reference to the anti-Rev ODN fluorescent at end 5′.
Different agarose concentrations were used to show the migration of the ODN and the dendriplexes, bearing in mind the small size of the ODN used. Finally, a 3% agarose concentration in TAE 1× was chosen as the best. The migration of non-fluorescent ODNs was compared with fluorescent ones, both migrating at the same height but the latter increasing the signal perceived considerably. Using them, it thus avoided the isotopic labelling of the ODN. A double well was manufactured to prepare these gels, to permit load volumes of 60 μl, of which 50 μl was mixture volume of the samples in RPMI and 10 μl load buffer with glycerol. As size marker, a ladder of 100 base pairs was used (Gibco BRL®).
For the complex formations in all the tests performed, both on gels and on cells the ratio between the number of positive and negative charges in said complex was taken. As published by different authors in studies with PAMAM dendrimers, it is necessary that the complex formed has an excess positive charge to facilitate its binding to the cell membrane glycoproteins, negatively charged, thus starting the endocytosis process. Likewise, an excess of positive charge is added to ensure the formation of the dendrimer-DNA complex. Therefore, the complexes between the CBS dendrimers and the different nucleic acids were formed in excess number of positive charges (provided by the CBS) compared with negative charges (provided by the ODN). Nevertheless, different charge ratios were tested, making the calculations based in the number of dendrimer charges (fixed) and the number of negative charges of the ODN (also fixed). The 2/1 ratio of positive/negative charges was fixed as sufficient in all dendrimers to form the complexes with a total positive charge, although in some experiments a balance was provided of an equal number of negative charges as positive charges or excess negative charges.
In all the tests, a complex formation volume of 60 μl was used, using phenol red without RPMI serum as support medium.
Tests of complex formation were used with the dendrimers of the invention IM8, ClNH4, NN, Phe and IM16.
The synthesis process of the CBS used in this work begins from an initial nucleus of common structure, which is ended functionalizing in the periphery by the use of different functional groups, which are those which provide the positive charge to the dendrimer and determine the differences between themselves, the dendrimeric nucleus being of apolar nature. Since some of the bonds of the functional groups used to the dendrimeric nucleus could be unstable in aqueous solution, tests were performed to determine if the DNA retention in agarose gels and, therefore, the complex formation between the CBS and the DNA could be due to the total dendrimer structure being conserved or in contrast, the terminal functional groups came away from the moiety of the dendrimeric core which are responsible for the DNA retention. For this, gels were used in which complexes were formed between the ODNs and the integral CBS and those formed supposedly between the ODNs and the terminal functional groups with which the carbosilane skeleton had functionalized, in this case quaternized dimethylethanolamine. As has previously been commented, those positively charged molecules, which are bound to the dendrimer as terminal functional groups, are those which give the dendrimer its charge. As control, the mixtures of ODN-dendrimers, ODN-monomers and ODN alone were compared. […]

| Compound | Apoptosis-necrosis (%) [1] [%] | Live cells (%) [1] [%] | complex formation with ODN (retention of DNA migration in gel) [2] |
| --- | --- | --- | --- |
| C[N+](C)(C)CCOc1cc(CO[Si](C)(C)CCC[Si](C)(CCC[Si](CCC[Si](C)(CCC[Si](C)(C)OCc2cc(OCC[N+](C)(C)C)cc(OCC[N+](C)(C)C)c2)CCC[Si](C)(C)OCc2cc(OCC[N+](C)(C)C)cc(OCC[N+](C)(C)C)c2)(CCC[Si](C)(CCC[Si](C)(C)OCc2cc(OCC[N+](C)(C)C)cc(OCC[N+](C)(C)C)c2)CCC[Si](C)(C)OCc2cc(OCC[N+](C)(C)C)cc(OCC[N+](C)(C)C)c2)CCC[Si](C)(CCC[Si](C)(C)OCc2cc(OCC[N+](C)(C)C)cc(OCC[N+](C)(C)C)c2)CCC[Si](C)(C)OCc2cc(OCC[N+](C)(C)C)cc(OCC[N+](C)(C)C)c2)CCC[Si](C)(C)OCc2cc(OCC[N+](C)(C)C)cc(OCC[N+](C)(C)C)c2)cc(OCC[N+](C)(C)C)c1.[I-].[I-].[I-].[I-].[I-].[I-].[I-].[I-].[I-].[I-].[I-].[I-].[I-].[I-].[I-].[I-] [Phe, 2G-[Si(OCH2—(C6H3)-3,5-(OCH2CH2NMe3^+I^−)2)]8] | 33 | 61 | capable of forming complexes with the ODN |
| C[Si](C)(CCCN)CCC[Si](C)(CCC[Si](C)(C)CCCN)CCC[Si](CCC[Si](C)(CCC[Si](C)(C)CCCN)CCC[Si](C)(C)CCCN)(CCC[Si](C)(CCC[Si](C)(C)CCCN)CCC[Si](C)(C)CCCN)CCC[Si](C)(CCC[Si](C)(C)CCCN)CCC[Si](C)(C)CCCN.Cl.Cl.Cl.Cl.Cl.Cl.Cl.Cl [ClNH4, 2G-[Si(CH2)3NH3^+Cl^−]8] | 26 | 71 | capable of retaining the DNA also with all the charge ratios evaluated |
| C[N+](C)(C)CCO[Si](C)(CCC[Si](C)(CCC[Si](CCC[Si](C)(CCC[Si](C)(OCC[N+](C)(C)C)OCC[N+](C)(C)C)CCC[Si](C)(OCC[N+](C)(C)C)OCC[N+](C)(C)C)(CCC[Si](C)(CCC[Si](C)(OCC[N+](C)(C)C)OCC[N+](C)(C)C)CCC[Si](C)(OCC[N+](C)(C)C)OCC[N+](C)(C)C)CCC[Si](C)(CCC[Si](C)(OCC[N+](C)(C)C)OCC[N+](C)(C)C)CCC[Si](C)(OCC[N+](C)(C)C)OCC[N+](C)(C)C)CCC[Si](C)(OCC[N+](C)(C)C)OCC[N+](C)(C)C)OCC[N+](C)(C)C.[I-].[I-].[I-].[I-].[I-].[I-].[I-].[I-].[I-].[I-].[I-].[I-].[I-].[I-].[I-].[I-] [IM16, 2G-[Si(OCH2CH2NMe3^+I^−)2]8] | 28 | 67 | capable of retaining the DNA |
| C[N+](C)(C)CCO[Si](C)(C)CCC[Si](C)(CCC[Si](CCC[Si](C)(CCC[Si](C)(C)OCC[N+](C)(C)C)CCC[Si](C)(C)OCC[N+](C)(C)C)(CCC[Si](C)(CCC[Si](C)(C)OCC[N+](C)(C)C)CCC[Si](C)(C)OCC[N+](C)(C)C)CCC[Si](C)(CCC[Si](C)(C)OCC[N+](C)(C)C)CCC[Si](C)(C)OCC[N+](C)(C)C)CCC[Si](C)(C)OCC[N+](C)(C)C.[I-].[I-].[I-].[I-].[I-].[I-].[I-].[I-] [IM8, 2G-[Si(OCH2CH2NMe3^+I^−)]8] | 36 | 59 | capable of retaining the DNA; also recorded: capable of retaining the migration of all the ODN |
| CN(CCO[Si](C)(C)CCC[Si](C)(CCC[Si](CCC[Si](C)(CCC[Si](C)(C)OCCN(C)CC[N+](C)(C)C)CCC[Si](C)(C)OCCN(C)CC[N+](C)(C)C)(CCC[Si](C)(CCC[Si](C)(C)OCCN(C)CC[N+](C)(C)C)CCC[Si](C)(C)OCCN(C)CC[N+](C)(C)C)CCC[Si](C)(CCC[Si](C)(C)OCCN(C)CC[N+](C)(C)C)CCC[Si](C)(C)OCCN(C)CC[N+](C)(C)C)CCC[Si](C)(C)OCCN(C)CC[N+](C)(C)C)CC[N+](C)(C)C.[I-].[I-].[I-].[I-].[I-].[I-].[I-].[I-] [NN, 2G-[Si(O(CH2)2N(Me)(CH2)2NMe3^+I^−)]8] | 24 | 70 | capable of forming complexes with the ODN |
